Assay results: patent US10246426B2, “Triazole compounds as T-type calcium channel blockers” (IDORSIA PHARMACEUTICALS LTD, priority 2014, dated 2019)

Target: Cav3.2 (Homo sapiens, UniProt O95180)
Test: Calcium flux FLIPR assay, HEK293 cells recombinantly expressing Cav3.2
Format: cell-based
Conditions: Cav3.2-channel, Ca2+ entry stimulated by 10 mM CaCl2
Procedure, shortened: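 Fluo-4-loaded HEK293 cells stably expressing Cav3.2, seeded overnight at 37 °C; compounds diluted in TEAC buffer (pH 7.2) and preincubated 3 min before Ca2+ entry triggered with CaCl2 at 10 mM final. Area under FLIPR fluorescence trace fitted sigmoidally; IC50 relative to vehicle signal.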

Sequence of Cav3.2 (O95180 whole entry, looked up): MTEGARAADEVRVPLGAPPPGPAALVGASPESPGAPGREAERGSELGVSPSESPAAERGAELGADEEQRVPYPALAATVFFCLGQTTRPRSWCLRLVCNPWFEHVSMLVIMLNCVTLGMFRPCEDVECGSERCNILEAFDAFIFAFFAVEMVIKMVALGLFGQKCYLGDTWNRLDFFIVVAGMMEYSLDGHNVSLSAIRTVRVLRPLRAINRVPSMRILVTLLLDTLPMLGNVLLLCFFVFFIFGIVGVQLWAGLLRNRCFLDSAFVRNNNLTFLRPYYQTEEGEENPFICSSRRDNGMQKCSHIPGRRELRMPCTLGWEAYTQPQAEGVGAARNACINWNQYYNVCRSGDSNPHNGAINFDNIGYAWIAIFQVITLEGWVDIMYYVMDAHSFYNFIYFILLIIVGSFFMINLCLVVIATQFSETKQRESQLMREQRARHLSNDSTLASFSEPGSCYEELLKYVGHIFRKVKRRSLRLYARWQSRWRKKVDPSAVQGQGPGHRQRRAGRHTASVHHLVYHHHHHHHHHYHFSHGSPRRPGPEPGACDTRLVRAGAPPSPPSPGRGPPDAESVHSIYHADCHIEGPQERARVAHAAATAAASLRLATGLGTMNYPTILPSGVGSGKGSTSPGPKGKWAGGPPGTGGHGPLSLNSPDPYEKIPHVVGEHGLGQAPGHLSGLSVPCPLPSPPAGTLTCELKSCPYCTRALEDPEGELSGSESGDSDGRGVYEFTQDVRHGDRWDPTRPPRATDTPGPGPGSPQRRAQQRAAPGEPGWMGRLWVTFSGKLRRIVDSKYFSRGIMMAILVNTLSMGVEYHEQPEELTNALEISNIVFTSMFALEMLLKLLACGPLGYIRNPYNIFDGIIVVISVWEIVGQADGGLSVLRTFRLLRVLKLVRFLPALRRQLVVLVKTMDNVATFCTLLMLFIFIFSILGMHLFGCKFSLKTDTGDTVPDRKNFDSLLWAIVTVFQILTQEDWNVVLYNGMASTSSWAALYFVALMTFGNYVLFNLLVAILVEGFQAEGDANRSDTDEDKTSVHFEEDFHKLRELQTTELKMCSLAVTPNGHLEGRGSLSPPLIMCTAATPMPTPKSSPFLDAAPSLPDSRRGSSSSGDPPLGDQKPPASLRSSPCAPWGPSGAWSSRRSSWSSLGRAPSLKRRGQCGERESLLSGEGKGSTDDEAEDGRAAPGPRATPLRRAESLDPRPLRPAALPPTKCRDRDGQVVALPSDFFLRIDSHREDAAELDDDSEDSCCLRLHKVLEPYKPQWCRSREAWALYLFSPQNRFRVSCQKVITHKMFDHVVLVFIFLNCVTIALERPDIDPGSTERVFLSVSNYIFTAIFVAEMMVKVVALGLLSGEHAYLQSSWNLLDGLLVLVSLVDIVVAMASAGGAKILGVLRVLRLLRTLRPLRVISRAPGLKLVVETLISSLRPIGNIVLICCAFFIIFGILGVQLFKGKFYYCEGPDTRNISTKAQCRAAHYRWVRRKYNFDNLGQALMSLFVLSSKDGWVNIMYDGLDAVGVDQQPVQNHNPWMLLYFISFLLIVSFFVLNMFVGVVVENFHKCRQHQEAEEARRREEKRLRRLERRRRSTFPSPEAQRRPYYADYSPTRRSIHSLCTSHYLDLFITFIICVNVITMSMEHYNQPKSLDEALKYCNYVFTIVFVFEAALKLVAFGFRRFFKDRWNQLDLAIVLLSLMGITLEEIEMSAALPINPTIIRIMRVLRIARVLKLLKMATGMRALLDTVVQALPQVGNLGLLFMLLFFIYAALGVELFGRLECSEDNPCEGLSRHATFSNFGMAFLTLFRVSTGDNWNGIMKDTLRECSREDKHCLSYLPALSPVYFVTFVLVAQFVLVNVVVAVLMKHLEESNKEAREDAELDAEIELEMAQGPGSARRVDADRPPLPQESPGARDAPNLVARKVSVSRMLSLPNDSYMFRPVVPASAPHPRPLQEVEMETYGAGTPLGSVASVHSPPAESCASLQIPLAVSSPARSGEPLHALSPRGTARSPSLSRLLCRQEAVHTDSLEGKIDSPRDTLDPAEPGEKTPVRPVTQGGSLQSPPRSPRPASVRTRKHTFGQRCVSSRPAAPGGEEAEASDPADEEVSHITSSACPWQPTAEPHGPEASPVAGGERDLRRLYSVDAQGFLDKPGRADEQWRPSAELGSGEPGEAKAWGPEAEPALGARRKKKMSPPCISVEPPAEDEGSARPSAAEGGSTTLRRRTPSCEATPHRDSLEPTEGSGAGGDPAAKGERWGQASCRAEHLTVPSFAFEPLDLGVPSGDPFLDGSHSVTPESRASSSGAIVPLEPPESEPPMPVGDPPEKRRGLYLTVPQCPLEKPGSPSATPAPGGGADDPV

SMILES	IC50 [nM]
CCN(CC)c1ccc(CC(=O)Nc2cnn(Cc3ccc(F)c(F)c3)n2)cn1 [Example 16, 2-(6-Diethylamino-pyridin-3-yl)-N-[2-(3,4-difluoro-benzyl)-2H-[1,2,3]triazol-4-yl]-acetamide]	15
O=C(Cc1ccc(N2CCCC2)nc1)Nc1cnn(Cc2ccc(F)cc2)n1 [Example 55, N-[2-(4-Fluoro-benzyl)-2H-[1,2,3]triazol-4-yl]-2-(6-pyrrolidin-1-yl-pyridin-3-yl)-acetamide]	50
N#Cc1ccc(Cn2ncc(NC(=O)Cc3cnc(N4CCCC4)c(F)c3)n2)nc1 [Example 247, N-[2-(5-Cyano-pyridin-2-ylmethyl)-2H-[1,2,3]triazol-4-yl]-2-(5-fluoro-6-pyrrolidin-1-yl-pyridin-3-yl)-acetamide]	690
O=C(Cc1ccc(C2(C(F)(F)F)CC2)cc1)Nc1cnn(Cc2ccc(OC(F)(F)F)c(F)c2)n1 [Example 188, N-[2-(3-Fluoro-4-trifluoromethoxy-benzyl)-2H-[1,2,3]triazol-4-yl]-2-[4-(1-trifluoromethyl-cyclopropyl)-phenyl]-acetamide]	96
COc1c(F)cc(Cn2ncc(NC(=O)Cc3ccc(OCC4(C)COC4)cc3)n2)cc1F [Example 144, N-[2-(3,5-Difluoro-4-methoxy-benzyl)-2H-[1,2,3]triazol-4-yl]-2-[4-(3-methyl-oxetan-3-ylmethoxy)-phenyl]-acetamide]	56
COc1ccc(Cn2ncc(NC(=O)Cc3ccc(C4(OC)COC4)cc3)n2)cc1F [Example 122, N-[2-(3-Fluoro-4-methoxy-benzyl)-2H-[1,2,3]triazol-4-yl]-2-[4-(3-methoxy-oxetan-3-yl)-phenyl]-acetamide]	360
COc1c(F)cc(Cn2ncc(NC(=O)Cc3ccc(N4CCCC4)nc3)n2)cc1F [Example 81, N-[2-(3,5-Difluoro-4-methoxy-benzyl)-2H-[1,2,3]triazol-4-yl]-2-(6-pyrrolidin-1-yl-pyridin-3-yl)-acetamide]	28
N#Cc1ccc(Cn2ncc(NC(=O)Cc3ccc(OC4CC(F)(F)C4)cc3)n2)cc1 [Example 196, N-[2-(4-Cyano-benzyl)-2H-[1,2,3]triazol-4-yl]-2-[4-(3,3-difluoro-cyclobutoxy)-phenyl]-acetamide]	41
